Test results from patent publication US20050037975A1, “Method for treatment of glutamate related disorders” (priority 1997, published 2005).

Tests used:
[1] = biological target: T1, rat liver mitochondrial low Km ALDH (Rattus norvegicus, UniProt P11884); assay: Liver aldehyde dehydrogenase determined in vivo; details: intraperitoneal (IP), liver taken eight hours later
T1 construct: differential centrifugation carried out to isolate the mitochondrial faction; from tissue; host or cells: liver mitochondria of male Sprague-Dawley derived rats
T1 sequence (P11884 20-519): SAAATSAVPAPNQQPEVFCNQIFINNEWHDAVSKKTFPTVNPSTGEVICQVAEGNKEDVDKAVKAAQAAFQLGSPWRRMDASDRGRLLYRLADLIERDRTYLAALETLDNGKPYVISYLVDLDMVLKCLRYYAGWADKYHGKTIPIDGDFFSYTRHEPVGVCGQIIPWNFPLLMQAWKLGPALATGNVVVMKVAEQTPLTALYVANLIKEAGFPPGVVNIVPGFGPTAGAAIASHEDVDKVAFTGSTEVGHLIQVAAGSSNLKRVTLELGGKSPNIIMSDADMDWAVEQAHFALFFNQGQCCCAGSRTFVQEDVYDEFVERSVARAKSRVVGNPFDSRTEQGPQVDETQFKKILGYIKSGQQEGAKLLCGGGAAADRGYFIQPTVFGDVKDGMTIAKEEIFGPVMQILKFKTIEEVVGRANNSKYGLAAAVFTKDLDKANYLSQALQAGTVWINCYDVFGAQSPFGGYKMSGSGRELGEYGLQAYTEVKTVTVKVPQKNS
Description: To determine if a compound of formula (I) can inhibit aldehyde dehydrogenase activity in vivo, doses of DETC-Me SO (1.3 mg/kg, 2.6 mg/kg, 5.2 mg/kg, 10.3 mg/kg and 20.6 mg/kg), were administered to male Sprague Dawley derived rats weighing 200-400 g. The rats were bred from a resident colony maintained in the Animal Care Unit at the University of Kansas. Rats were maintained on a 12-hour lights cycle with access to food and water ad lib until the night before an experiment, at which time food was removed. Animals were fasted for 12 hours prior to drug administration.
All experiments were carried out in the morning. Rats were treated with the doses of DETC-Me SO or DETC-Me described above, which were dissolved in polyethylene glycol 200. Eight hours later, the rats were anesthetized with carbon-dioxide and then decapitated. The liver was quickly removed and the low Km aldehyde dehydrogenase determined. Control rats were treated with […] vehicle only, and each control data point also represents an average of four rats.
The liver from drug-treated and control rats was homogenized in 0.25 M sucrose and differential centrifugation was carried out to isolate the mitochondrial fraction. The mitochondria were solubilized with sodium deoxycholate, and mitochondrial low Km and total (high and low) aldehyde dehydrogenase activity determined by the method of S. O. C. Tottmar et al., cited above.

ALDH2 = assay: In vitro inactivation of aldehyde dehydrogenase; format: biochemical
Description: (§1) To test whether the protective effect of DETC-MeSO in hyperbaric O2-induced convulsions in mice could be due to inhibition of succinic semi-aldehyde dehydrogenase (SSA DH), mechanistically related to ALDH2, the sensitivity of SSA DH to inactivation by DETC-MeSO was determined. Potentially, inhibition of SSA DH in brain could offset the build up of ammonia known to occur and produce more GABA. In vitro both ALDH2 and SSA DH are inactivated by DETC-MeSO at 47 M-1 s-1 and 300 M-1 s-1, respectively.

[2] = Carbamoylation of glutathione by DETC-MeSO under physiological conditions
Description: This rate of reaction was approximate an order of magnitude faster than that of the more familiar α-haloketone functionality.

brain or liver SSA DH = biological target: T2, brain or liver SSA DH (Mus musculus, UniProt Q8BWF0); assay: In vivo effect on brain or liver SSA DH levels; details: up to 100 mg/kg i.p.
T2 construct: with no effect on the levels of brain or liver SSA DH; from tissue; host or cells: brain or liver of treated animals
T2 sequence (Q8BWF0 36-523): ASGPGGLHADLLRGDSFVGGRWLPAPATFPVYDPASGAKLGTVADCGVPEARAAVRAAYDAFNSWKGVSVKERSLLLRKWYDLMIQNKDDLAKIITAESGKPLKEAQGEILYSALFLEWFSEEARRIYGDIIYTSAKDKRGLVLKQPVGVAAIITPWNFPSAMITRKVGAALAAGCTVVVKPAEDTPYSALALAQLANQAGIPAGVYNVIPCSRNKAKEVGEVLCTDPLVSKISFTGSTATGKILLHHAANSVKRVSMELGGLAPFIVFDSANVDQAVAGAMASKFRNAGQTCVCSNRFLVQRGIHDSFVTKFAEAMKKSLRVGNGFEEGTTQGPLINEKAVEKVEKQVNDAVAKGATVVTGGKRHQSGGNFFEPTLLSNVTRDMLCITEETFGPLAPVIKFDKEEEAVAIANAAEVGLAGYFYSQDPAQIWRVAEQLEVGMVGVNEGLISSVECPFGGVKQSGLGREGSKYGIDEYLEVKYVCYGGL

[3] = system: succinic semi-aldehyde dehydrogenase (SSA DH); assay: In vitro inactivation of succinic semi-aldehyde dehydrogenase; format: biochemical
Description: as §1

[4] = Plasma acetaldehyde determination after ethanol challenge; format: in vivo, rat; details: 10.3 mg/kg IP in polyethylene glycol 200, ethanol challenge 1 g/kg IP
Description: Rats maintained as described in Ex. 4, fasted for 18 hours, were given 10.3 mg/kg of the DETC-Me SO intraperitoneally, dissolved in polyethylene glycol 200 and then challenged eight hours later with a dose of ethanol (1 g/kg; 20% v/v) also administered intraperitoneally. The rats were anesthetized with phenobarbital 30 minutes after alcohol administration and blood was taken by aortic puncture, being drawn into a heparinized syringe. Plasma acetaldehyde was determined by the method of C. O. P. Eriksson et al., Anal. Biochem., 80, 116 (1977). Plasma concentrations were determined based on a standard curve obtained with known concentrations of acetaldehyde. Control rats were treated with 1 ml/kg of polyethylene glycol 200.

CCN(CC)C(=O)[S+](C)[O-] (stereo not drawn) [DETC-MeSO, S-Methyl-N,N-Diethylthiolcarbamate Sulfoxide]
dose required to inhibit 50% of the low Km ALDH [1]: 3.6 mg/kg | inactivation rate of ALDH2 (ALDH2; in vitro): 47 M⁻¹ s⁻¹ | rate for enzyme (ALDH) inactivation (ALDH2; under physiological conditions): 40 M⁻¹ s⁻¹ | rate of carbamoylation of the sulfhydryl group of glutathione (GSH) ([2]; 37° C., pH 7): 10 M⁻¹ s⁻¹ | conversion to DETC-GS ([2]; GSH 1-6 mM, within 5 minutes): > 95% | DETC-MeSO remaining ([2]; blood, GSH 1 mM, after 5 minutes): less than 5% | DETC-MeSO remaining ([2]; liver, after one minute): less than 3% | effect on the levels of brain or liver SSA DH (brain or liver SSA DH): no effect | inactivation rate of SSA DH [3]: 300 M⁻¹ s⁻¹ | plasma acetaldehyde [4]: approximately 900 μM
